PMC3207826, “Phase I Evaluation of STA-1474, a Prodrug of the Novel HSP90 Inhibitor Ganetespib, in Dogs with Spontaneous Cancer” (PLoS ONE, 2011)
“Also recorded” adds a separate entry of the source. One block for each compound: values may come before it.

What was measured:
[1] = Toxicity assessment (VCOG-CTCAE grades) in Phase I trial; format: in vivo, dogs
Method: This study was a Phase I dose escalating, open label assessment of the safety and pharmacokinetics of STA-1474 in client owned dogs with spontaneous malignancies. Dogs were administered STA-1474 on one of three dosing regimens and were evaluated weekly or twice per week dependent on the regimen used. Assessment of clinical toxicities and tumor response was performed at each visit. Dogs were evaluated for hematologic and biochemical toxicities every 7 days with routine bloodwork. The initial dose of STA-1474 was set at 7 mg/kg based on previous data from normal laboratory dogs (data not shown) and dose escalation was set at 2.5 mg/kg increments in cohorts of 3 until dose limiting toxicity (DLT) was identified. The DLT was considered to be any grade 3 or 4 hematologic or non-hematologic toxicity based on the established VCOG-CTAE criteria. […] Disease progression or signs and symptoms definitely related to disease were not considered adverse events (AEs).
Each patient underwent a baseline complete history, physical examination, and predose laboratory assessment that included a complete blood count (CBC), serum biochemistry profile, and urinalysis. Patients were assessed for adverse events on days 8, 15, 22, and 29, at which time a complete blood count with differential and clinical chemistry were performed. Urinalysis was performed at baseline and repeated only if indicated. Stipulations regarding minimal hematological requirements to continue dosing were included in the protocol: hematocrit >25%, neutrophils >[…], platelets >[…]. In addition, liver transaminases were required to be <4X upper limit of normal with a normal total bilirubin and serum creatinine to continue STA-1474 therapy.

[2] = system: spontaneous tumors; assay: Tumor response assessment (RECIST); format: in vivo, dogs
Method: Tumor assessments were completed prior to study entry, and days 8, 15, 22, and 29. For dogs that continued beyond the planned 4 doses of STA-1474, response assessments were performed every 3–6 weeks thereafter, or at the time of suspected tumor progression. Responses were assessed by the investigator according to pre-defined protocol criteria. The response in dogs with assessable disease was performed by clinical examination, radiography, ultrasonography, or CT scans. Many lesions were not amenable for quantitative radiographic imaging, but were followed either by serial clinical examination (superficial lesions; palpable lymph nodes) or by ultrasonography (abdominal lymph nodes). Thoracic lesions were assessed by thoracic radiography and nasal lesions by CT scan.
The response in dogs with measurable disease was judged by the investigator on the basis of RECIST criteria. A complete response (CR) was defined as disappearance of all disease on two measurements separated by a minimum period of 3 weeks. A partial response (PR) was defined as greater than 30% reduction in the sum of the longest diameter of the target lesions documented by two assessments separated by at least 3 weeks. An increase of >20% in the size of all measurable tumor areas as measured by the sum of longest diameters of the target lesions taken as reference the smallest sum since initiation of therapy, or the appearance of any new lesion(s) would qualify as progressive disease (PD). A mixed response (MR) was defined as PR in some target lesions with PD in other target lesions. Stable disease (SD) was defined by the absence of criteria for either a response or progression. Dogs who had no evidence of tumor progression and who had not experienced any unacceptable toxicity were eligible for extended treatment cycles. Dose escalation in an individual dog was permitted if the dog was tolerating therapy.

[3] = system: HSP70; assay: Evaluation of HSP70 expression in tumor biopsies and PBMCs (ELISA, Western blot); format: in vivo, dogs
[4] = system: HSP90; assay: Evaluation of tumor biopsies for HSP90 expression (Western blot); format: in vivo, dogs; conditions: tumor samples, 24 hrs following treatment, 5 mg/kg over 1 hour
Method: Frozen tumor samples were processed as described above, then resuspended in 100–150 uL of lysis buffer consisting of 20 mM Tris-HCl pH 8.0, 137 mM NaCl, 10% glycerol, 1% IGEPAL CA-630, 10 mM ethylenediaminetetraacetic acid (EDTA), 1 mg/mL aprotinin, 1 mg/mL leupeptin, 1 mg/mL pepstatin A, 1 mM phenylmethysulphonyl fluoride, 1 mM sodium orthovanadate, 10 mM sodium fluoride (all from Sigma, St. Louis, MO). Sample were rocked at 4°C for 1 hour, and then centrifuged for 15 minutes at 13,000 RCF. A Bradford protein assay was performed on the lysates using BioRad Reagent (Hercules, CA). 60–100 µg of protein were separated by SDS-page, and transferred to PVDF membranes. The membranes were incubated overnight with anti-HSP90 antibodies (Cell Signaling Technology, Danvers, MA), washed, then incubated with horseradish peroxidase linked secondary antibody. Membranes were washed again, then exposed to Super Signal West Dura Extended Duration Substrate (Pierce, Rockford, IL) Membranes were stripped, washed, and reprobed for β-Actin (Santa Cruz Biotechnology, Santa Cruz, CA) using the SNAP i.d. apparatus (Millipore, Billerica, MA) according to manufacture's instructions.

[5] = system: canine MCT and OSA cell lines; conditions: cited from earlier work; for activity compared with 17-AAG: OSA and MCT cell lines
[6] = system: OSA xenografts; conditions: cited from earlier work
[7] = Ganetespib pharmacokinetics in plasma after STA-1474 infusion (LC-MS/MS); format: in vivo, dogs; conditions: for half-life / AUC(0-t) / Cmax / Tmax: iv, STA-9090 in plasma, mean, day 1
Method: Plasma samples were collected on day 1 and day 22 of therapy at the specified intervals: before and after dosing at 30, 60, 90, 120, 180, 300 (5 hr), 540 (9 hr), and 1440 (24 hr) minutes relative to the start of dosing. On day 8, day 15, and day 29, plasma was collected before dosing only. Approximately 1 ml of blood was drawn from an indwelling catheter, placed in a sodium heparin vacuum glass tube, and placed on ice until centrifugation. Blood samples were centrifuged at 3300 rpm for 10 minutes, within 30 minutes of collection. Plasma was transferred by pipette into two cryovials and stored at −80°C until analysis.
Plasma concentrations of ganetespib were determined using a qualified liquid chromatography tandem mass spectrometry (LC-MS/MS) method. Samples were analyzed on an HPLC system consisting of an Agilent HP1100 separation module (Santa Clara, CA) coupled to an AB SCIEX API400 MS/MS detector (Foster City, CA). Stable isotope-labeled ganetespib was used as an internal standard. Sample extraction was performed by a liquid-liquid extraction method with 25 µL plasma samples and 800 µL methyl tertiary butyl ether. The organic phase of samples was evaporated to dryness under nitrogen and reconstituted with water/acetonitrile solution for injection. Chromatographic separation was achieved on a reverse-phase analytical column (4 µm particle, 50×2.0 mm i.d.) with gradient elution of water/0.1% formic acid and acetonitrile/0.1% formic acid at a flow rate of 500 µL/min. The total run time was 4 min. Quantitation was achieved by MS/MS detection in positive ion mode by multiple reaction monitoring. The lower limit of quantitation (LLOQ) was 1.00 ng/mL, with a concentration range from 1.00 to 1000 ng/mL.
The pharmacokinetic parameters for ganetespib were determined from the plasma concentration data using the Noncompartmental Analysis module in WinNonlin, version 5.2 (Pharsight Corporation, St.Louis, MO). The predose samples that measured below the LLOQ (BQL) were treated as zero for the calculations. Maximum concentration (Cmax) and time of maximum concentration (Tmax) were directly determined from the observed concentration-time profiles. The area under the plasma concentration-time curve (AUC) was estimated by the linear trapezoidal rule. The apparent half-life (t1/2) was calculated as t1/2 = 0.693/λ where λ was the elimination rate constant estimated from the regression of the terminal slope of the concentration versus time curve.

[8] = system: human cancer cell lines; parameters: method as in earlier work; conditions: in vitro; 15 and unpublished data, Synta Pharmaceuticals Corp.; cited from earlier work
[9] = system: MCT xenograft; conditions: murine MCT xenograft model; cited from earlier work
[10] = 1 hr/2x week, 5.0 mg/kg, 7 dogs
[11] = dog, plasma, 5 mg/kg, STA-1474 5 mg/kg, 1 h infusion, twice weekly
[12] = dog, plasma, 9.5 mg/kg, STA-1474 9.5 mg/kg, 1 h infusion, once weekly
[13] = dog, plasma, 9.5 mg/kg, STA-1474 9.5 mg/kg, 8 h infusion, once weekly

SMILES: CC(C)c1cc(-c2nnc(O)n2-c2ccc3c(ccn3C)c2)c(O)cc1OP(=O)(O)O [STA-1474]
Anorexia grade 1 (count) [1, 10]: 3
Anorexia grade 2 (count) [1, 10]: 5
Diarrhea grade 1 (count) [1, 10]: 5
Diarrhea grade 2 (count) [1, 10]: 1
Diarrhea grade 3 (count) [1, 10]: 1
Lethargy grade 1 (count) [1, 10]: 4
Lethargy grade 2 (count) [1, 10]: 2
Anorexia grade 2 (count) ([1]; 1 hr/week, 7.0 mg/kg, 4 dogs): 2
Diarrhea grade 1 (count) ([1]; 1 hr/week, 7.0 mg/kg, 4 dogs): 2
Diarrhea grade 2 (count) ([1]; 1 hr/week, 7.0 mg/kg, 4 dogs): 3
Lethargy grade 1 (count) ([1]; 1 hr/week, 7.0 mg/kg, 4 dogs): 2
Vomiting grade 1 (count) ([1]; 1 hr/week, 7.0 mg/kg, 4 dogs): 3
Diarrhea grade 1 (count) ([1]; 1 hr/week, 9.5 mg/kg, 5 dogs): 1
Diarrhea grade 3 (count) ([1]; 1 hr/week, 9.5 mg/kg, 5 dogs): 1
Lethargy grade 2 (count) ([1]; 1 hr/week, 9.5 mg/kg, 5 dogs): 1
Lethargy grade 3 (count) ([1]; 1 hr/week, 9.5 mg/kg, 5 dogs): 1
Vomiting grade 2 (count) ([1]; 1 hr/week, 9.5 mg/kg, 5 dogs): 2
Anorexia grade 2 (count) ([1]; 1 hr/week, 10.25 mg/kg, 3 dogs): 3
Diarrhea grade 2 (count) ([1]; 1 hr/week, 10.25 mg/kg, 3 dogs): 3
Lethargy grade 2 (count) ([1]; 1 hr/week, 10.25 mg/kg, 3 dogs): 3
Vomiting grade 2 (count) ([1]; 1 hr/week, 10.25 mg/kg, 3 dogs): 1
Anorexia grade 1 (count) ([1]; 8 hr/week, 9.5 mg/kg, 6 dogs): 5
Anorexia grade 2 (count) ([1]; 8 hr/week, 9.5 mg/kg, 6 dogs): 4
Diarrhea grade 1 (count) ([1]; 8 hr/week, 9.5 mg/kg, 6 dogs): 4
Diarrhea grade 2 (count) ([1]; 8 hr/week, 9.5 mg/kg, 6 dogs): 4
Lethargy grade 1 (count) ([1]; 8 hr/week, 9.5 mg/kg, 6 dogs): 2
Vomiting grade 2 (count) ([1]; 8 hr/week, 9.5 mg/kg, 6 dogs): 3
maximum tolerated weekly dose ([1]; administered weekly over 1 or 8 hours, intravenous): 9.5 mg/kg
hematologic or biochemical toxicities ([1]; any doses or regimens): No drug-related hematologic or biochemical toxicities; also recorded: no evidence of hematologic toxicity
dogs with partial responses ([2]; 5 mg/kg over one hour twice per week, 7 dogs, both MCTs): 2
objective responses ([2]; 1 hr once per week dosing regimen, n = 12, exception one dog with oral malignant melanoma after extravasation): no objective responses
biologic activity rate ([2]; 8 hour infusion group, 9.5 mg/kg once weekly, 2PR, 1 MR, 2 SD of 6): 83%
response rate (measurable objective responses) ([2]; all dogs, 6/25): 24%
overall biological activity (objective responses plus stable disease >10 weeks) ([2]; all dogs, 9/25): 36%
duration of mixed response ([2]; metastatic MCT, 8 hour infusion 9.5 mg/kg): 16 weeks
duration of partial response ([2]; metastatic OSA, 8 hour infusion 9.5 mg/kg): 20 weeks
duration of partial response ([2]; metastatic thyroid carcinoma, 8 hour infusion 9.5 mg/kg): 36 weeks
duration of stable disease ([2]; metastatic thyroid carcinoma, switched from 1 hr to 8 hr infusion): 40 weeks
duration of continued partial response ([2]; oral malignant melanoma with extravasation event, on 8 hour infusion protocol): 12 weeks
duration of stable disease ([2]; two dogs, both metastatic OSA, 8 hour infusion 9.5 mg/kg): 12 weeks
HSP70 expression (Western blot) ([3]; PBMCs, 24 hours after 9.5 mg/kg over 8 hours): small increases in HSP70 expression
time to upregulation of HSP70 protein expression ([3]; tumor specimens and PBMCs, following drug administration): ≤ 7 h
HSP90 expression levels (Western blot) [4]: did not appear to change substantially
activity compared with 17-AAG [5]: superior activity
tumor effect [6]: induced tumor regression

sustained blood levels ([7]; dog with oral melanoma, extravasation (mostly subcutaneous) of STA-1474, first dosing cohort): 200 to 600 ng/mL
duration of sustained blood levels ([7]; dog with oral melanoma, extravasation of STA-1474, levels between 200–600 ng/ml): 8 to 10 h
half-life ([7]; dog, STA-1474 5 mg/kg, 1 h infusion, twice weekly): 6.1 h
half-life ([7]; dog, STA-1474 9.5 mg/kg, 1 h infusion, once weekly): 5.6 h
AUC ([7]; dog, plasma, intravenous, range over the three dosing regimens of STA-1474): 5010 to 5700 ng·h/mL
AUC(0-t) [7, 11]: 5010 ng·h/mL
Cmax [7, 11]: 3420 ng/mL
Tmax [7, 11]: 1.1 h
AUC(0-t) [7, 12]: 5700 ng·h/mL
Cmax [7, 12]: 3980 ng/mL
Tmax [7, 12]: 0.7 h
AUC(0-t) [7, 13]: 5600 ng·h/mL
Cmax [7, 13]: 802 ng/mL
Tmax [7, 13]: 5.7 h
SMILES: CC(C)c1cc(-c2n[nH]c(=O)n2-c2ccc3c(ccn3C)c2)c(O)cc1O [ganetespib]
activity compared with 17-AAG [5]: superior activity
concentrations for biologic effects, lower than those for 17-AAG ([5]; canine MCT and OSA cell lines): at least 1 log
concentrations killing cancer cell lines [8]: low nanomolar concentrations
tumor growth [9]: inhibited tumor growth
